What all share (format): cell-based
In assay [1] the test system is A. baumanni 13301 producing Carbapenem hydrolysing beta-lactamase enzymes. The assay can be described thus: Time kill study against A. baumanni 13301. To be noted: for Bacterial count (Log10 CFU/ml) 0 hours / Change in Log10 CFU/ml over 0 hour count after 24 hours / Bacterial count (Log10 CFU/ml) 2 hours / Bacterial count (Log10 CFU/ml) 4 hours / Bacterial count (Log10 CFU/ml) 6 hours / Bacterial count (Log10 CFU/ml) 8 hours / Bacterial count (Log10 CFU/ml) 24 hours: 4 mcg/ml alone; for Effect on bacterial count (in words): summary of Table 3, alone or in combination. The procedure:
(§1) In general, the antibacterial activity of compositions according to invention was studied by performing time kill studies. In a typical time kill study, the freshly grown cultures were diluted to the required cell density (initial starting inoculum) in cation adjusted Muller Hinton broth medium (BD, USA). The antibacterial agents (either alone or in combination) at the required concentrations were added into the culture-containing medium. The samples were incubated under shaking condition (120 rpm) at 37° C. Enumeration of viable bacterial count was done every 2 hour by diluting in normal saline and plating on to the Tryptic Soya Agar plates (BD, USA). The plates were incubated for 24 hours to arrive at a viable bacterial count. The results are expressed in terms of log10 CFU/ml. In general, the decrease of 1 log10 CFU/ml corresponds to 90% killing of bacteria. Similarly, 2 log10 CFU/ml reductions indicates to 99% killing of bacteria and 3 log10 CFU/ml reductions is equal to 99.9% killing of bacteria.

Assay [2] deals with E. coli 7MP producing Class A and Class C beta-lactamase enzymes. Kind of assay: Time kill study against E. coli 7MP. To be noted: for Effect on bacterial count (in words): alone or in combination. The procedure:
as §1

Assay [3] concerns K. pneumoniae B-88 producing metallo beta-lactamase enzymes. Kind of assay: Time kill study against K. pneumoniae B-88. To be noted: for Effect on bacterial count (in words): summary of Table 1, alone or in combination. Here is the method: as §1
The mark [4] stands for this setting: summary of Table 5, throughout the duration of the study.

Consider `NCCONC(=O)[C@@H]1CC[C@@H]2CN1C(=O)N2OS(=O)(=O)O` [Compound (E)], for which, in assay [1], the “Bacterial count (Log10 CFU/ml) 0 hours” value is listed as 6.88 Log10 CFU/ml, the “Change in Log10 CFU/ml over 0 hour count after 24 hours” value is recorded as 2.16 Log10 CFU/ml, the “Bacterial count (Log10 CFU/ml) 2 hours” value is listed as 8.04 Log10 CFU/ml and the “Bacterial count (Log10 CFU/ml) 4 hours” value is 8.74 Log10 CFU/ml. For the same molecule, in assay [1], the “Bacterial count (Log10 CFU/ml) 6 hours” value was determined as 8.90 Log10 CFU/ml, the “Bacterial count (Log10 CFU/ml) 8 hours” value was found to be 9.20 Log10 CFU/ml, the “Bacterial count (Log10 CFU/ml) 24 hours” value is listed as 9.04 Log10 CFU/ml and the “Effect on bacterial count (in words)” value is “could not reduce the bacterial count”. Also, in assay [2] (Table 2, 2 mcg/ml alone), the “Change in Log10 CFU/ml over 0 hour count after 24 hours” value was 2.22 Log10 CFU/ml, the “Bacterial count (Log10 CFU/ml) 2 hours” value was determined as 8.02 Log10 CFU/ml, the “Bacterial count (Log10 CFU/ml) 4 hours” value is 9.15 Log10 CFU/ml and the “Bacterial count (Log10 CFU/ml) 6 hours” value was determined as 9.11 Log10 CFU/ml. The “Bacterial count (Log10 CFU/ml) 24 hours” value in assay [2] (Table 2, 2 mcg/ml alone) came out at 9.30 Log10 CFU/ml. Besides, the “Effect on bacterial count (in words)” value in assay [2] (summary of Table 2) is recorded as “could not reduce the bacterial count”. In addition, in assay [3] (2 mcg/ml alone), the “Bacterial count (Log10 CFU/ml) 0 hours” value is listed as 7.28 Log10 CFU/ml, the “Change in Log10 CFU/ml over 0 hour count after 24 hours” value worked out at 1.26 Log10 CFU/ml, the “Bacterial count (Log10 CFU/ml) 2 hours” value was 7.60 Log10 CFU/ml and the “Bacterial count (Log10 CFU/ml) 4 hours” value came to 8.26 Log10 CFU/ml. Also, in assay [3] (2 mcg/ml alone), the “Bacterial count (Log10 CFU/ml) 6 hours” value came to 8.18 Log10 CFU/ml and the “Bacterial count (Log10 CFU/ml) 24 hours” value came out at 8.54 Log10 CFU/ml. In assay [3], the “Effect on bacterial count (in words)” value is listed as “could not reduce the bacterial count”.
For `NC(=O)[C@@H]1CC[C@@H]2CN1C(=O)N2OS(=O)(=O)O` [Avibactam, reference compound], in assay [2] (Table 5, 4 mcg/ml alone), the “Change in Log10 CFU/ml over 0 hour count after 8 hours” value worked out at 2.28 Log10 CFU/ml, the “Bacterial count (Log10 CFU/ml) 2 hours” value is 7.90 Log10 CFU/ml, the “Bacterial count (Log10 CFU/ml) 4 hours” value was found to be 9.23 Log10 CFU/ml and the “Bacterial count (Log10 CFU/ml) 6 hours” value is 9.30 Log10 CFU/ml. The “Bacterial count (Log10 CFU/ml) 8 hours” value in assay [2] (Table 5, 4 mcg/ml alone) stood at 9.36 Log10 CFU/ml. Moreover, the “Effect on bacterial count (in words)” value in assay [2] (setting [4]) is “did not reduce the bacterial count”.
Regarding `CC(C)(O/N=C(\C(=O)N[C@@H]1C(=O)N2C(C(=O)[O-])=C(C[N+]3(CCNC(=O)c4ccc(O)c(O)c4Cl)CCCC3)CS[C@H]12)c1csc(N)n1)C(=O)O` [Compound of Formula (I), (6R,7R)-7-[(2Z)-2-(2-amino-1,3-thiazol-4-yl)-2-{[(2-carboxypropan-2-yl)oxy]imino}acetamido]-3-({1-[2-(2-chloro-3,4-dihydroxybenzamido)ethyl]pyrrolidin-1-ium-1-yl}methyl)-8-oxo-5-thia-1-azabicyclo[4.2.0]oct-2-ene-2-carboxylate], in assay [1], the “Bacterial count (Log10 CFU/ml) 0 hours” value came out at 6.88 Log10 CFU/ml, the “Change in Log10 CFU/ml over 0 hour count after 24 hours” value is reported as 2.22 Log10 CFU/ml, the “Bacterial count (Log10 CFU/ml) 2 hours” value was 4.85 Log10 CFU/ml and the “Bacterial count (Log10 CFU/ml) 4 hours” value stood at 4.02 Log10 CFU/ml. In assay [1], the “Bacterial count (Log10 CFU/ml) 6 hours” value is reported as 5.18 Log10 CFU/ml, the “Bacterial count (Log10 CFU/ml) 8 hours” value is recorded as 7.5 Log10 CFU/ml, the “Bacterial count (Log10 CFU/ml) 24 hours” value was determined as 9.10 Log10 CFU/ml and the “Effect on bacterial count (in words)” value was “could not reduce the bacterial count”. Further, in assay [2] (Table 2, 0.25 mcg/ml alone), the “Change in Log10 CFU/ml over 0 hour count after 24 hours” value was determined as 2.12 Log10 CFU/ml, the “Bacterial count (Log10 CFU/ml) 2 hours” value stood at 7.60 Log10 CFU/ml, the “Bacterial count (Log10 CFU/ml) 4 hours” value was determined as 9.11 Log10 CFU/ml and the “Bacterial count (Log10 CFU/ml) 6 hours” value amounted to 9.20 Log10 CFU/ml. Also, the “Bacterial count (Log10 CFU/ml) 24 hours” value in assay [2] (Table 2, 0.25 mcg/ml alone) is given as 9.20 Log10 CFU/ml. In assay [2] (Table 2, 0.5 mcg/ml alone), the “Change in Log10 CFU/ml over 0 hour count after 24 hours” value is recorded as 2.12 Log10 CFU/ml, the “Bacterial count (Log10 CFU/ml) 2 hours” value is listed as 7.18 Log10 CFU/ml, the “Bacterial count (Log10 CFU/ml) 4 hours” value is given as 7.74 Log10 CFU/ml and the “Bacterial count (Log10 CFU/ml) 6 hours” value stood at 9.18 Log10 CFU/ml. In assay [2] (Table 2, 0.5 mcg/ml alone), the “Bacterial count (Log10 CFU/ml) 24 hours” value stood at 9.20 Log10 CFU/ml. In addition, in assay [2] (Table 5, 1 mcg/ml alone), the “Change in Log10 CFU/ml over 0 hour count after 8 hours” value is recorded as 1.57 Log10 CFU/ml, the “Bacterial count (Log10 CFU/ml) 2 hours” value came to 7.15 Log10 CFU/ml, the “Bacterial count (Log10 CFU/ml) 4 hours” value was found to be 6.60 Log10 CFU/ml and the “Bacterial count (Log10 CFU/ml) 6 hours” value was 7.90 Log10 CFU/ml. The “Bacterial count (Log10 CFU/ml) 8 hours” value in assay [2] (Table 5, 1 mcg/ml alone) was 8.65 Log10 CFU/ml. Besides, in assay [2] (summary of Table 2), the “Effect on bacterial count (in words)” value is reported as “could not reduce the bacterial count”. In assay [2] (setting [4]), the “Effect on bacterial count (in words)” value is recorded as “did not reduce the bacterial count”. In assay [3] (0.25 mcg/ml alone), the “Bacterial count (Log10 CFU/ml) 0 hours” value worked out at 7.28 Log10 CFU/ml, the “Change in Log10 CFU/ml over 0 hour count after 24 hours” value is recorded as −0.47 Log10 CFU/ml, the “Bacterial count (Log10 CFU/ml) 2 hours” value was 6.74 Log10 CFU/ml and the “Bacterial count (Log10 CFU/ml) 6 hours” value turned out to be 6.70 Log10 CFU/ml. Further, the “Bacterial count (Log10 CFU/ml) 24 hours” value in assay [3] (0.25 mcg/ml alone) is listed as 6.81 Log10 CFU/ml. For the same molecule, in assay [3] (0.5 mcg/ml alone), the “Bacterial count (Log10 CFU/ml) 0 hours” value is given as 7.28 Log10 CFU/ml, the “Change in Log10 CFU/ml over 0 hour count after 24 hours” value is −0.98 Log10 CFU/ml, the “Bacterial count (Log10 CFU/ml) 2 hours” value was determined as 6.18 Log10 CFU/ml and the “Bacterial count (Log10 CFU/ml) 4 hours” value amounted to 5.85 Log10 CFU/ml. For the same molecule, in assay [3] (0.5 mcg/ml alone), the “Bacterial count (Log10 CFU/ml) 6 hours” value is 6.30 Log10 CFU/ml and the “Bacterial count (Log10 CFU/ml) 24 hours” value came out at 6.30 Log10 CFU/ml. For the same molecule, the “Effect on bacterial count (in words)” value in assay [3] was “could not reduce the bacterial count”.
With `O=C(O)[C@H]1/C(=C/CO)O[C@@H]2CC(=O)N21` [Clavulanic acid, reference compound], in assay [2] (Table 5, 4 mcg/ml alone), the “Change in Log10 CFU/ml over 0 hour count after 8 hours” value amounted to 2.28 Log10 CFU/ml, the “Bacterial count (Log10 CFU/ml) 2 hours” value is recorded as 7.90 Log10 CFU/ml, the “Bacterial count (Log10 CFU/ml) 4 hours” value stood at 9.23 Log10 CFU/ml and the “Bacterial count (Log10 CFU/ml) 6 hours” value is 9.30 Log10 CFU/ml. In addition, in assay [2] (Table 5, 4 mcg/ml alone), the “Bacterial count (Log10 CFU/ml) 8 hours” value is recorded as 9.36 Log10 CFU/ml. In assay [2] (setting [4]), the “Effect on bacterial count (in words)” value was “did not reduce the bacterial count”.
Turning to `C[C@]1(Cn2ccnn2)[C@H](C(=O)O)N2C(=O)C[C@H]2S1(=O)=O` [Tazobactam, reference compound], in assay [2] (Table 5, 4 mcg/ml alone), the “Change in Log10 CFU/ml over 0 hour count after 8 hours” value is 2.28 Log10 CFU/ml, the “Bacterial count (Log10 CFU/ml) 2 hours” value is given as 7.90 Log10 CFU/ml, the “Bacterial count (Log10 CFU/ml) 4 hours” value came out at 9.23 Log10 CFU/ml and the “Bacterial count (Log10 CFU/ml) 6 hours” value was 9.30 Log10 CFU/ml. Also, the “Bacterial count (Log10 CFU/ml) 8 hours” value in assay [2] (Table 5, 4 mcg/ml alone) turned out to be 9.36 Log10 CFU/ml. Also, the “Effect on bacterial count (in words)” value in assay [2] (setting [4]) is recorded as “did not reduce the bacterial count”.
Regarding `C[C@@H](O)[C@H]1C(=O)N2C(C(=O)O)=C(SCCN=CN)C[C@H]12` [Imipenem, reference compound], in assay [3] (8 mcg/ml alone), the “Bacterial count (Log10 CFU/ml) 0 hours” value is 7.28 Log10 CFU/ml, the “Change in Log10 CFU/ml over 0 hour count after 24 hours” value was 2.02 Log10 CFU/ml, the “Bacterial count (Log10 CFU/ml) 2 hours” value stood at 8.04 Log10 CFU/ml and the “Bacterial count (Log10 CFU/ml) 4 hours” value was 8.65 Log10 CFU/ml. Besides, in assay [3] (8 mcg/ml alone), the “Bacterial count (Log10 CFU/ml) 6 hours” value is 9.20 Log10 CFU/ml and the “Bacterial count (Log10 CFU/ml) 24 hours” value stood at 9.30 Log10 CFU/ml.

These data come from patent US20200316083A1, “ANTIBACTERIAL COMPOSITIONS” (WOCKHARDT LIMITED, priority 2016, published 2020).
